Test results published in patent US20070066672A1, “Benzimidazole derivatives and use thereof as peptide deformylase inhibitors” (Arpida A/S, priority 2003, published 2007).

Experiments:
[1] = target: T1, Peptide Deformylase (PDF) (Staphylococcus aureus, UniProt P68826); assay: Bacterial peptide deformylase (PDF) assay, colorimetric cell free, enzyme from S. aureus; assay type: biochemical; conditions: f-Met-Ala substrate, TNBS detection at 420 nm
T1 construct: made in house
T1 sequence (P68826 1-183): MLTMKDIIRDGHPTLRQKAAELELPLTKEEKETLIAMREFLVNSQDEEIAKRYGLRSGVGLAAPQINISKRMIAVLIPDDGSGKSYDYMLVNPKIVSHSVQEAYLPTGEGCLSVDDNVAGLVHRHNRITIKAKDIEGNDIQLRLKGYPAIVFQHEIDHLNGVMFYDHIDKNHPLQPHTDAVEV
From the text: (§1) To find inhibitors of Peptide Deformylase (PDF), a colorimetric cell free assay for measuring the enzymatic activity of PDF has been adapted to the microtiter plate format (96 wells). The assay comprises three components, purified PDF, f-Met-Ala as substrate and TNBS as the detecting agent of primary amino groups. The resulting TNP_NH-Met-Ala sulfite complex can be detected at 420 nm. PDF enzymes, containing Fe^2+ as the native metal, are purified and are stabilized by the addition of tris(2-carboxyethyl)phosphine (TCEP).
(§2) The IC50 value of a compound of the invention as a bacterial PDF inhibitor was determined using the following assay.
(§3) Assay buffer 0.1 M MOPS pH was adjusted to 7.2 with NaOH, containing 0.25 M NaCl, 100 μg/mL catalase and 1 mg/mL BSA.
(§4) E. coli enzyme (2.5 mg/ml) 10 μl+290 μl Assay buffer, 1 μl per ml enzyme mix. S. aureus (15 mg/ml) 10 μl+990 μl Assay buffer, 0.3 μl per ml enzyme mix.
(§5) Substrate mix: 10 mM f-Met-Ala was made up from 200 mM f-Met-Ala in methanol with assay buffer.
(§6) TNBS solution: Freshly dilute 1 M TNBS stock solution diluted 1:10 with water.
(§7) Buffer C: 0.5 M borate buffer adjusted to pH 9.5 with NaOH.
(§8) Buffer D: 0.2 ml of freshly prepared 0.5 M Na2SO3 was mixed with 9.8 mL of 0.5M NaH2PO4.
(§9) Inhibitor solution: 2 mM Sodium 4-(hydroxymercurio)benzoate in assay buffer.
(§10) Compound mix: Compound of formula I dissolved in DMSO in a 10 mg/mL stock solution. Further dilutions were made in DMSO in the concentration range between 0.05 to 100 mM.
(§11) The assay was performed in a 96 Microtiter plate containing test compound. To each well containing test compound mix was added 75 microliter of enzyme mix from E. coli followed by the addition of 25 microliter of substrate mix. The resulting mix was incubated for 30 minutes at room temperature with shaking. TNBS solution (50 microliter/well) was added and the resulting mixture was incubated for 15 minutes under shaking. Buffer C was then added (20 microliter/well). After incubating at room temperature for 15 minutes under shaking, buffer D was added (50 microliter/well). The optical […] was then measured at 420 nm, thereby determining the IC50 value.
The assay was repeated using enzyme mix from S. aureus.

[2] = target: T2, Peptide Deformylase (PDF) (Escherichia coli, UniProt P0A6K3); assay: Bacterial peptide deformylase (PDF) assay, colorimetric cell free, enzyme from E. coli; assay type: biochemical
T2 construct: made in house
From the text: as §1, §2, §3, §4, §5, §6, §7, §8, §9, §10, §11

T2 sequence (P0A6K3 whole entry): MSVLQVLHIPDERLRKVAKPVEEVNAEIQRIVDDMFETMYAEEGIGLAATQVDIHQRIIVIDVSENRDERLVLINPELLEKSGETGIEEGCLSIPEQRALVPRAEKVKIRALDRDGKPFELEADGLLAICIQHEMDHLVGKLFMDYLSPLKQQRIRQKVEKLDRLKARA

Structure (SMILES)	IC50 [1]	IC50 [2]
CCCCn1c(C(CC(C)C)NC(=O)CCC(=O)NO)nc2cc(C(=O)NCC(=O)OC)ccc21 (stereo not shown) [Example 34, ({1-Butyl-2-[1-(3-hydroxycarbamoyl-propionylamino)-3-methyl-butyl]-1H-benzoimidazole-5-carbonyl}-amino)-acetic acid methyl ester]	2.27 µM	–
COC(=O)CNC(=O)c1ccc2c(c1)nc(C(CCSC)NC(=O)CCC(=O)O)n2Cc1ccccc1 (stereo not shown) [Example 3, N-{1-[1-Benzyl-5-(methoxycarbonylmethyl-carbamoyl)-1H-benzoimidazol-2-yl]-3-methylsulfanyl-propyl}-succinamic acid]	31.4 µM	80 µM
COC(=O)CNC(=O)c1ccc2c(c1)nc(C(CCCCN)NC(=O)CCS)n2Cc1ccccc1 (stereo not shown) [Example 49, ({2-[5-Amino-1-(3-mercapto-propionylamino)-pentyl]-1-benzyl-1H-benzoimidazole-5-carbonyl}-amino)-acetic acid methyl ester]	2.4 µM	5.2 µM
COC(=O)CNC(=O)c1ccc2c(c1)nc(C(Cc1ccccc1)NC(=O)CCC(=O)NO)n2Cc1ccc(Cl)cc1 (stereo not shown) [Example 40, ({1-(4-Chloro-benzyl)-2-[1-(3-hydroxycarbamoyl-propionylamino)-2-phenyl-ethyl]-1H-benzoimidazole-5-carbonyl}-amino)-acetic acid methyl ester]	0.021 µM	1.4 µM
COC(=O)CNC(=O)c1ccc2c(c1)nc(C(Cc1cccc3ccccc13)NC(=O)CCC(=O)O)n2CCc1cccs1 (stereo not shown) [Example 17, N-{1-[5-(Methoxycarbonylmethyl-carbamoyl)-1-(2-thiophen-2-yl-ethyl)-1H-benzoimidazol-2-yl]-2-naphthalen-1-yl-ethyl}-succinamic acid]	0.099 µM	0.071 µM
COC(=O)CNC(=O)c1ccc2c(c1)nc(C(Cc1cccc3ccccc13)NC(=O)CCC(=O)NO)n2Cc1ccccc1 (stereo not shown) [Example 46, ({1-Benzyl-2-[1-(3-hydroxycarbamoyl-propionylamino)-2-naphthalen-1-yl-ethyl]-1H-benzoimidazole-5-carbonyl}-amino)-acetic acid methyl ester]	0.9 µM	6.5 µM
COC(=O)CNC(=O)c1ccc2c(c1)nc(C(CC(C)C)NC(=O)CCC(=O)O)n2C1CC1 (stereo not shown) [Example 13, N-{1-[1-Cyclopropyl-5-(methoxycarbonylmethyl-carbamoyl)-1H-benzoimidazol-2-yl]-3-methyl-butyl}-succinamic acid]	0.119 µM	4 µM
COC(=O)CNC(=O)c1ccc2c(c1)nc(C(CCc1ccccc1)NC(=O)CCC(=O)O)n2Cc1ccccc1Cl (stereo not shown) [Example 9, N-{1-[1-(2-Chloro-benzyl)-5-(methoxycarbonylmethyl-carbamoyl)-1H-benzoimidazol-2-yl]-3-phenyl-propyl}-succinamic acid]	18 µM	27.8 µM
CCC(NC(=O)CCS)c1nc2cc(C(=O)NCC(=O)OC)ccc2n1C1CC1 (stereo not shown) [Example 1, ({1-Cyclopropyl-2-[1-(3-mercapto-propionylamino)-propyl]-1H-benzoimidazole-5-carbonyl}-amino)-acetic acid methyl ester]	45.4 µM	65 µM
COC(=O)CNC(=O)c1ccc2c(c1)nc(C(CCCCN)NC(=O)CCS)n2C1CC1 (stereo not shown) [Example 48, ({2-[5-Amino-1-(3-mercapto-propionylamino)-pentyl]-1-cyclopropyl-1H-benzoimidazole-5-carbonyl}-amino)-acetic acid methyl ester]	2 µM	3.6 µM
CCC(NC(=O)CCC(=O)O)c1nc2cc(C(=O)NCC(=O)OC)ccc2n1C1CC1 (stereo not shown) [Example 10, N-{1-[1-Cyclopropyl-5-(methoxycarbonylmethyl-carbamoyl)-1H-benzoimidazol-2-yl]-propyl}-succinamic acid]	0.023 µM	5.6 µM
COC(=O)CNC(=O)c1ccc2c(c1)nc(C(Cc1ccccc1)NC(=O)CCC(=O)NO)n2Cc1ccco1 (stereo not shown) [Example 39, ({1-Furan-2-ylmethyl-2-[1-(3-hydroxycarbamoyl-propionylamino)-2-phenyl-ethyl]-1H-benzoimidazole-5-carbonyl}-amino)-acetic acid methyl ester]	–	1.5 µM
COC(=O)CNC(=O)c1ccc2c(c1)nc(C(Cc1ccc(O)cc1)NC(=O)CCS)n2CC1CCCCC1 (stereo not shown) [Example 21, ({1-Cyclohexylmethyl-2-[2-(4-hydroxy-phenyl)-1-(3-mercapto-propionylamino)-ethyl]-1H-benzoimidazole-5-carbonyl}-amino)-acetic acid methyl ester]	> 200 µM	> 200 µM
COC(=O)CNC(=O)c1ccc2c(c1)nc(C(Cc1ccccc1)NC(=O)CCS)n2CCO (stereo not shown) [Example 22, ({1-(2-Hydroxy-ethyl)-2-[1-(3-mercapto-propionylamino)-2-phenyl-ethyl]-1H-benzoimidazole-5-carbonyl}-amino)-acetic acid methyl ester]	> 200 µM	> 200 µM
COC(=O)CNC(=O)c1ccc2c(c1)nc(C(CCSC)NC(=O)CCC(=O)NO)n2CC1CCCCC1 (stereo not shown) [Example 37, ({1-Cyclohexylmethyl-2-[1-(3-hydroxycarbamoyl-propionylamino)-3-methylsulfanyl-propyl]-1H-benzoimidazole-5-carbonyl}-amino)-acetic acid methyl ester]	–	0.317 µM
COC(=O)CNC(=O)c1ccc2c(c1)nc(C(Cc1ccccc1)NC(=O)CCS)n2Cc1ccc(Cl)cc1 (stereo not shown) [Example 2, ({1-(4-Chloro-benzyl)-2-[1-(3-mercapto-propionylamino)-2-phenyl-ethyl]-1H-benzoimidazole-5-carbonyl}-amino)-acetic acid methyl ester]	6.1 µM	22.1 µM
CCCCn1c(C(CC(C)C)NC(=O)CCC(=O)O)nc2cc(C(=O)NCC(=O)OC)ccc21 (stereo not shown) [Example 14, N-{1-[1-Butyl-5-(methoxycarbonylmethyl-carbamoyl)-1H-benzoimidazol-2-yl]-3-methyl-butyl}-succinamic acid]	2.6 µM	7.3 µM
COC(=O)CNC(=O)c1ccc2c(c1)nc(C(CC(C)C)NC(=O)CCC(=O)NO)n2C1CC1 (stereo not shown) [Example 33, ({1-Cyclopropyl-2-[1-(3-hydroxycarbamoyl-propionylamino)-3-methyl-butyl]-1H-benzoimidazole-5-carbonyl}-amino)-acetic acid methyl ester]	0.496 µM	–
CCCCn1c(C(Cc2cccc3ccccc23)NC(=O)CCC(=O)NO)nc2cc(C(=O)NCC(=O)OC)ccc21 (stereo not shown) [Example 45, ({1-Butyl-2-[1-(3-hydroxycarbamoyl-propionylamino)-2-naphthalen-1-yl-ethyl]-1H-benzoimidazole-5-carbonyl}-amino)-acetic acid methyl ester]	–	5.8 µM
COC(=O)CNC(=O)c1ccc2c(c1)nc(C(Cc1cccc3ccccc13)NC(=O)CCC(=O)NO)n2CCc1cccs1 (stereo not shown) [Example 44, {[2-[1-(3-Hydroxycarbamoyl-propionylamino)-2-naphthalen-1-yl-ethyl]-1-(2-thiophen-2-yl-ethyl)-1H-benzoimidazole-5-carbonyl]-amino}-acetic acid methyl ester]	–	3.1 µM
COC(=O)CNC(=O)c1ccc2c(c1)nc(C(CCSC)NC(=O)CCC(=O)NO)n2C1CC1 (stereo not shown) [Example 36, ({1-Cyclopropyl-2-[1-(3-hydroxycarbamoyl-propionylamino)-3-methylsulfanyl-propyl]-1H-benzoimidazole-5-carbonyl}-amino)-acetic acid methyl ester]	1.5 µM	–
COC(=O)CNC(=O)c1ccc2c(c1)nc(C(Cc1cccc3ccccc13)NC(=O)CCC(=O)O)n2Cc1ccccc1 (stereo not shown) [Example 30, N-{1-[1-Benzyl-5-(methoxycarbonylmethyl-carbamoyl)-1H-benzoimidazol-2-yl]-2-naphthalen-1-yl-ethyl}-succinamic acid]	–	7 µM
COC(=O)CNC(=O)c1ccc2c(c1)nc(C(CC(C)C)NC(=O)CCC(=O)NO)n2Cc1ccccc1 (stereo not shown) [Example 35, ({1-Benzyl-2-[1-(3-hydroxycarbamoyl-propionylamino)-3-methyl-butyl]-1H-benzoimidazole-5-carbonyl}-amino)-acetic acid methyl ester]	0.804 µM	–
